Measured values: paper PMC9637222, “Autoinducer-2 and bile salts induce c-di-GMP synthesis to repress the T3SS via a T3SS chaperone” (Nature Communications, 2022)
“And” between values parts separate entries of the source, which are not always exact repeats. Equal entries are not always repeated. “Also recorded” adds a separate entry of the source. Where two headings read alike, the source gives them in different places.

How the values were obtained:
S. Typhimurium [1] = experiment: Biofilm formation (crystal violet staining); type: cell-based; conditions: for OD590: 1 μM, Fig. 4c; for Biofilm formation (in words): strain SL1344, individual components of bile salts
Method: Biofilm formation was measured by crystal violet staining. In brief, overnight cultures of S. Typhimurium strains were diluted with fresh LB medium to an OD600 of 0.05, and 200 μl aliquots of the diluted cells were inoculated into each well of a sterile flat-bottomed 96-well polystyrene microtiter plate. After incubation at 37 °C for 24 h without shaking, culture supernatants were removed, and the wells were washed twice with sterilized water. Cells adhering to the wells were then stained with 0.1% (w/v) crystal violet for 15 min, followed by two washes using distilled water to remove unbound dye. […] For swimming motility assay, overnight cultures of S. Typhimurium strains were diluted to an OD600 of 0.5, and 2 μl aliquots of the diluted cells were spotted onto 0.3% tryptone agar (1% tryptone, 0.5% NaCl, and 0.3% Bacto agar [Difco]). Motility halos were measured after the plates were incubated at 37 °C for 12 h.

SicA = target: T1, SicA (Salmonella typhimurium, UniProt P69066); experiment: ITC: nucleotide (c-di-GMP, c-di-AMP, cGMP) binding to SicA; parameters: species or system S. Typhimurium; conditions: same experimental conditions as c-di-GMP
T1 construct: His6 (N, cleaved yes); made in house; host or cells: E. coli BL21(DE3), pET-28a (pET28a-sicA)

YedQ-LBD = target: T2, YedQ-LBD (Salmonella typhimurium, UniProt Q8ZNT5); experiment: biochemical; type: binding, S. Typhimurium
T2 construct: the periplasmic LBD (residues 43–357) of YedQ is structurally not well defined; His6 (N, cleaved yes); made in house; host or cells: E. coli BL21(DE3) or its luxS deletion derivative, pET-28a
Method: (§1) ITC measurements were carried out at 20 °C with a Nano ITC Standard Volume isothermal calorimeter (TA Instruments, New Castle, DE) controlled by the ITCRun software. The N-terminal His6 tags of all purified proteins were removed before ITC analysis. For titrations with DPD/AI-2 (Omm Scientific), the tag-free proteins were dialyzed against a Tris buffer (25 mM Tris-HCl, 150 mM NaCl, pH 7.5) and diluted to 70 μM, while DPD/AI-2 was diluted with the same buffer to 700 μM. […] After being degassed, 1 ml of the protein and 250 μl of the ligand solution were added to the sample cell and the syringe, respectively. There were 25 injections per experiment and the stirring speed was 200 rpm. In control experiments, the ligand solution was titrated into the buffer in the sample cell to obtain the heat of dilution. Microcalorimetric data were corrected by subtracting the heats of dilution and fit to the independent binding site model using the NanoAnalyze software.

YedQ-LBD D233A = YedQ-LBD D233A (Salmonella typhimurium, UniProt Q8ZNT5, D233A); experiment: biochemical
Method: as §1
(§2) The binding affinitywas evaluated using ITC analysis. ITC data and plots of injected heat for injections
(§3) binding curves were corrected for the dilution effects in the final analysis.
(§4) The Kd and binding stoichiometry
(§5) (n)values were presented as mean ± s.d. of three independent experiments. Source data are provided

YedQ-LBD K236A = YedQ-LBD K236A (Salmonella typhimurium, UniProt Q8ZNT5, K236A); experiment: biochemical
Method: as §1, §2, §3, §4, §5

YedQ-LBD L288A = YedQ-LBD L288A (Salmonella typhimurium, UniProt Q8ZNT5, L288A); experiment: biochemical
Method: as §1, §2, §3, §4, §5

YedQ-LBD L289A = YedQ-LBD L289A (Salmonella typhimurium, UniProt Q8ZNT5, L289A); experiment: biochemical
Method: as §1, §2, §3, §4, §5

YedQ-LBD Q264A = YedQ-LBD Q264A (Salmonella typhimurium, UniProt Q8ZNT5, Q264A); experiment: biochemical
Method: as §1, §2, §3, §4, §5

WP_010904779-LBD = target: T3, WP_010904779-LBD (Escherichia coli O157:H7, UniProt Q8XB92); experiment: biochemical; type: binding, EHEC O157:H7; conditions: for Binding affinity (in words) / Kd: ITC; for Binding affinity (in words): LBD of the YedQ homolog from EHEC O157:H7
T3 construct: His6 (N, cleaved yes); made in house; host or cells: E. coli BL21(DE3) or its luxS deletion derivative
T3 sequence (Q8XB92 43-357 limits assumed): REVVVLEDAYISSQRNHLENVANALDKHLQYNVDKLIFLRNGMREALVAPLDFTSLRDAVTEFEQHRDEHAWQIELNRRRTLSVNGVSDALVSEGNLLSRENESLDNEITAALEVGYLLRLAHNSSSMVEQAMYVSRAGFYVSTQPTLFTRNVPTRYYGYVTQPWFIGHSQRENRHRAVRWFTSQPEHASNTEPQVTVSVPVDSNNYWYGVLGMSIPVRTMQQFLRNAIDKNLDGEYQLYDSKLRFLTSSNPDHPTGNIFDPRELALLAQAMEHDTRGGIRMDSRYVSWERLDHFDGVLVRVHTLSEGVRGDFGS
Method: as §1
The binding affinity was evaluated by ITC analysis. ITC data and plots of injected heat for automatic
WP_010904779-LBD are shown in the upper and lower plots, respectively. The binding curves were
corrected for the dilution effects in the finalanalysis.
Kd and binding stoichiometry (n) are presented as mean ± s.d. of three

YedQ = tested on: T4, YedQ; experiment: In vitro DGC activity assay of YedQ (membrane fractions, HPLC of c-di-GMP); type: biochemical, S. Typhimurium; conditions: for Effect on DGC activity of YedQ in c-di-GMP synthesis (in words): in vitro, membrane fractions
T4 construct: Preparation of membrane fractions containing full-length YeaJ and YedQ; made in house; host or cells: ΔluxS mutant of E. coli BL21(DE3), membrane fractions

S. Typhimurium [2] = experiment: Cellular c-di-GMP quantification by LC-MS/MS; type: cell-based; conditions: 1 μM; for c-di-GMP (fmol/107 cells): strain WT(Vector), Fig. 4e; for Change of intracellular c-di-GMP levels (in words): wild-type strain; for Induction of intracellular c-di-GMP levels (in words): ΔyedQ mutant
Method: For stimulation with AI-2, the DPD/AI-2 solution was added to the shaking culture at OD600 of 1.3, followed by another 30 min of incubation at 37 °C. For induction by porcine bile salts and individual bile components (Sigma-Aldrich), substances were added to the static culture at OD600 of 1.1, followed by another 30 min of incubation at 37 °C. About 15 ml of culture was centrifuged and the cells were washed twice with phosphate-buffered saline (PBS, pH 7.0). The cell pellets were resuspended in 500 μl of extraction solution (acetonitrile/methanol/water, 40:40:20, v/v/v) and cooled on ice for 15 min. The samples were boiled for 10 min at 95 °C and then cooled again on ice for 15 min. After centrifugation at 20,000×g and 4 °C for 10 min, supernatants were transferred to new tubes on ice. The remaining pellets were used for two more extraction steps with 500 μl of the extraction solution without heating. Pooled supernatants for each sample were lyophilized, and pellets were resolubilized in 200 μl of distilled water. C-di-GMP concentrations were then measured by LC-MS/MS[63] (AB SCIEX QTRAP 6500+ LC-MS/MS System). Intracellular levels of c-di-GMP were normalized to the number of bacterial cells for each sample.

Chain of YedQ-LBD Q264A (Q8ZNT5 43-357 Q264A): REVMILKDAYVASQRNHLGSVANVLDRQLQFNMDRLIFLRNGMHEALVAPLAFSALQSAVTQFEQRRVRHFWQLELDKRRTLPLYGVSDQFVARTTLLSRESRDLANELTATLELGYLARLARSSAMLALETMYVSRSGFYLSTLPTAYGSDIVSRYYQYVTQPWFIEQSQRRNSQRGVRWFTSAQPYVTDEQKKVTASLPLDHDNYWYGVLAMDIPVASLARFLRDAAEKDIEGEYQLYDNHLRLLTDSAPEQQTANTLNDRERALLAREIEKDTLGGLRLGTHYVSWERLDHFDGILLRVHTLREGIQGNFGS
Chain of YedQ-LBD D233A (Q8ZNT5 43-357 D233A): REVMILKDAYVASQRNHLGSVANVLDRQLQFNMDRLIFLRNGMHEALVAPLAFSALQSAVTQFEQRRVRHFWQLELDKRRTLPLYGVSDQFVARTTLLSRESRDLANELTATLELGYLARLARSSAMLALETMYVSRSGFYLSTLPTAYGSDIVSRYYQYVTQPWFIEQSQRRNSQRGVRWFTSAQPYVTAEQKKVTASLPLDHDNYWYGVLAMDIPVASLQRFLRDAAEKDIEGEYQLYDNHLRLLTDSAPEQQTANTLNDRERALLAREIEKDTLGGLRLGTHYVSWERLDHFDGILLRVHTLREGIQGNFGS
Chain of YedQ-LBD L289A (Q8ZNT5 43-357 L289A): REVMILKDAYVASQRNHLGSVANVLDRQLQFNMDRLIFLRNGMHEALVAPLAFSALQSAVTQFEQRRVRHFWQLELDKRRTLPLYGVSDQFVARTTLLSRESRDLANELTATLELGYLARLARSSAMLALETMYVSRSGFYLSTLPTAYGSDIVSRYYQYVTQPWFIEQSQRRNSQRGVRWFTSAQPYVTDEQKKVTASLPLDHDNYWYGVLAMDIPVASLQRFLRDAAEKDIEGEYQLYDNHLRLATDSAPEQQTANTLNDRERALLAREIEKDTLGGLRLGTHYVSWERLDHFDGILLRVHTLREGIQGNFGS
T2 sequence (Q8ZNT5 43-357): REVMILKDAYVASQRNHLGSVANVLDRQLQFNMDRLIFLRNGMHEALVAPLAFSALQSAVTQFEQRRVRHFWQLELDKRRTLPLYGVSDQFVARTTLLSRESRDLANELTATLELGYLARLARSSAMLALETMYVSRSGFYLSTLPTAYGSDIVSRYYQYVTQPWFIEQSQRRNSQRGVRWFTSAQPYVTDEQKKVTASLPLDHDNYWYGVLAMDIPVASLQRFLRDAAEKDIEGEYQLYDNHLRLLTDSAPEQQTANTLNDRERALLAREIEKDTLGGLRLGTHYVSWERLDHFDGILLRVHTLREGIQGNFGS
Chain of YedQ-LBD L288A (Q8ZNT5 43-357 L288A): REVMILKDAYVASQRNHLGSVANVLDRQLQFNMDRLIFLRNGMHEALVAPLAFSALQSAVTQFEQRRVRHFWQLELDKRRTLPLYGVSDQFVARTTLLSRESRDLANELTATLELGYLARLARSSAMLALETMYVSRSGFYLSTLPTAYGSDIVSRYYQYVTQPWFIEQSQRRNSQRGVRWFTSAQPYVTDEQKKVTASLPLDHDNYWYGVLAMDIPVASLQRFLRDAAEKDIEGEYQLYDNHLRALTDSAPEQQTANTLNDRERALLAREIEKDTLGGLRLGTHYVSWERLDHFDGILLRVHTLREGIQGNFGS
Chain of YedQ-LBD K236A (Q8ZNT5 43-357 K236A): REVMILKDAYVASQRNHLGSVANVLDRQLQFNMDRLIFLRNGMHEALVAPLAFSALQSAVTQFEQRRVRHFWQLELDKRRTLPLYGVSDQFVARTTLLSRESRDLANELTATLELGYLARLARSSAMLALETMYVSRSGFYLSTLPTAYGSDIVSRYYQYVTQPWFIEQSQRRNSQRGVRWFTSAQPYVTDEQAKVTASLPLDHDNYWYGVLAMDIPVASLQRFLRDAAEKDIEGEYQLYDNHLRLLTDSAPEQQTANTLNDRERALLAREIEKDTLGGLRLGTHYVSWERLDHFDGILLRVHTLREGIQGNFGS
T1 sequence (P69066 whole entry): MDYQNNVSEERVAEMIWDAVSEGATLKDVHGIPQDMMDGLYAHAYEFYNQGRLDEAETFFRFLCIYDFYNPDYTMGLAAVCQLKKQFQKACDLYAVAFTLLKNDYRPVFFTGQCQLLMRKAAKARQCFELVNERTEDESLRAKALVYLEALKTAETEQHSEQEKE

| SMILES | OD590 (S. Typhimurium [1]) | Binding to SicA (in words) (SicA) | Binding affinity (in words) (WP_010904779-LBD) | Concentration of c-di-GMP (YedQ; 100 μM, 30 min) | Concentration of c-di-GMP (YedQ; 100 μM, 60 min) | Concentration of c-di-GMP (YedQ; 200 μM, 30 min) | Concentration of c-di-GMP (YedQ; 200 μM, 60 min) | Effect on DGC activity of YedQ in c-di-GMP synthesis (in words) (YedQ) | c-di-GMP (fmol/107 cells) (S. Typhimurium [2]) | Change of intracellular c-di-GMP levels (in words) (S. Typhimurium [2]) | Induction of intracellular c-di-GMP levels (in words) (S. Typhimurium [2]) | Biofilm formation (in words) (S. Typhimurium [1]) | other results |
| --- | --- | --- | --- | --- | --- | --- | --- | --- | --- | --- | --- | --- | --- |
| C[C@H](CCC(=O)O)[C@H]1CC[C@H]2[C@@H]3[C@H](O)C[C@@H]4C[C@H](O)CC[C@]4(C)[C@H]3C[C@H](O)[C@]12C [Cholate] | 2.29 and 2.20 and 2.14 |  |  |  |  |  |  |  |  |  |  |  |  |
| C[C@H](CCC(=O)NCC(=O)O)[C@H]1CC[C@H]2[C@@H]3[C@H](O)C[C@@H]4C[C@H](O)CC[C@]4(C)[C@H]3C[C@H](O)[C@]12C [Glycocholate] | 2.14 |  |  |  |  |  |  |  |  |  |  |  |  |
| Nc1ncnc2c1ncn2[C@@H]1O[C@@H]2COP(=O)(O)O[C@H]3[C@@H](O)[C@H](n4cnc5c(N)ncnc54)O[C@@H]3COP(=O)(O)O[C@H]2[C@H]1O [c-di-AMP] |  | no binding |  |  |  |  |  |  |  |  |  |  |  |
| Nc1nc2c(ncn2[C@@H]2O[C@@H]3COP(=O)(O)O[C@H]3[C@H]2O)c(=O)[nH]1 [cGMP] |  | no binding |  |  |  |  |  |  |  |  |  |  |  |
| C[C@H](CCC(=O)NCCS(=O)(=O)O)[C@H]1CC[C@H]2[C@@H]3[C@H](O)C[C@@H]4C[C@H](O)CC[C@]4(C)[C@H]3C[C@H](O)[C@]12C [taurocholate] |  |  | high binding; also recorded: high affinity | 22.83 µM and 22.66 µM and 23.00 µM | 34.84 µM and 35.29 µM and 36.56 µM | 39.61 µM and 38.40 µM and 39.33 µM | 45.78 µM and 46.73 µM and 45.87 µM | induce the DGC activity | 57.59 fmol/107 cells and 62.54 fmol/107 cells and 56.52 fmol/107 cells | significant increase | completely abolished | significantly stimulated biofilm formation | Kd (YedQ-LBD; Kd (μM), binding to YedQ-LBD (WT)): 0.2 µM and 0.13 µM and 0.16 µM; Kd (YedQ-LBD; Kd, ITC, YedQ-LBD WT, mean ± s.d. of three independent experiments): 0.17 ± 0.03 µM; Kd (YedQ-LBD D233A; Binding affinity Kd (μM), ITC, YedQ-LBD D233A, mean ± s.d.): 18 ± 1 µM; n, Taurocholate binding to YedQ-LBDD233A (YedQ-LBD D233A; ITC binding stoichiometry n, individual replicates, Supplementary Figure 11a): 1.11 and 1.16 and 1.13; Kd (YedQ-LBD D233A; Kd (μM), binding to YedQ-LBD D233A): 18 µM and 16 µM; Kd (YedQ-LBD D233A; Kd, Taurocholate binding to YedQ-LBDD233A, ITC, individual replicates, Supplementary Figure 11a): 18 µM; Kd (YedQ-LBD K236A; Binding affinity Kd (μM), ITC, YedQ-LBD K236A, mean ± s.d.): 27 ± 2 µM; n, Taurocholate binding to YedQ-LBDK236A (YedQ-LBD K236A; ITC binding stoichiometry n, individual replicates, Supplementary Figure 11b): 1.04 and 1.09 and 1.01; Kd (YedQ-LBD K236A; Kd (μM), binding to YedQ-LBD K236A): 24 µM and 26 µM and 30 µM; n, Taurocholate binding to YedQ-LBDL288A (YedQ-LBD L288A; ITC binding stoichiometry n, individual replicates, Supplementary Figure 11d): 1.10 and 1.02 and 1.07; Kd (YedQ-LBD L288A; Kd (μM), binding to YedQ-LBD L288A): 18 µM and 21 µM and 24 µM; n, Taurocholate binding to YedQ-LBDL289A (YedQ-LBD L289A; ITC binding stoichiometry n, individual replicates, Supplementary Figure 11e): 1.18 and 1.14 and 1.16; Kd (YedQ-LBD L289A; Kd (μM), binding to YedQ-LBD L289A): 7.7 µM and 6.8 µM and 7.2 µM; n, Taurocholate binding to YedQ-LBDQ264A (YedQ-LBD Q264A; ITC binding stoichiometry n, individual replicates, Supplementary Figure 11c): 1.07 and 1.18 and 1.00; Kd (YedQ-LBD Q264A; Kd (μM), binding to YedQ-LBD Q264A): 14 µM and 12 µM and 15 µM; n, Taurocholate binding to WP_010904779-LBD (WP_010904779-LBD; ITC binding stoichiometry n, individual replicates, Supplementary Figure 24a): 1.06 and 1.08 and 1.12; Kd (WP_010904779-LBD; Taurocholate binding to WP_010904779-LBD, individual replicates, Supplementary Figure 24a): 0.19 µM and 0.22 µM and 0.23 µM |
| C[C@H](CCC(=O)NCCS(=O)(=O)O)[C@H]1CC[C@H]2[C@@H]3CC[C@@H]4C[C@H](O)CC[C@]4(C)[C@H]3C[C@H](O)[C@]12C [taurodeoxycholate] |  |  | high binding; also recorded: high affinity | 22.89 µM and 24.25 µM and 23.52 µM | 34.75 µM and 35.42 µM and 35.31 µM | 37.84 µM and 36.56 µM and 37.20 µM | 46.63 µM and 47.86 µM and 45.57 µM | induce the DGC activity | 78.56 fmol/107 cells and 82.79 fmol/107 cells and 79.80 fmol/107 cells | significant increase | completely abolished | significantly stimulated biofilm formation | Kd (YedQ-LBD; ITC, YedQ-LBD WT, mean ± s.d. of three independent experiments, read-out: Kd): 0.14 ± 0.02 µM; Kd (YedQ-LBD; binding to YedQ-LBD (WT), read-out: Kd): 0.15 µM and 0.17 µM and 0.11 µM; n, Taurodeoxycholate binding to WP_010904779-LBD (WP_010904779-LBD; ITC binding stoichiometry n, individual replicates, Supplementary Figure 24b): 1.13 and 1.09 and 1.12; Kd (WP_010904779-LBD; Taurodeoxycholate binding to WP_010904779-LBD, individual replicates, Supplementary Figure 24b): 0.13 µM and 0.17 µM and 0.19 µM |
